How the values were obtained:
COX-1 = COX-1 (Homo sapiens, UniProt P23219); conditions: in vitro; cited from earlier work
[1] = human pharmacokinetic study: blood plasma concentration of valdecoxib; format: in vivo
Protocol: Subjects drank 180 ml water one, two and three hours postdose.

physchem = conditions: 20 °C, thermodynamic from solid
[2] = test system: patients requiring extraction of two ipsilateral impacted third molars; assay: placebo-controlled single-dose preemptive analgesia study, third molar extraction; format: in vivo, human
Protocol: Beginning at 30 minutes after closure of surgery, level of pain was assessed every two hours up to 24 hours, except that patients were not awakened for pain assessments. Pain was assessed by the patient on a 0-3 scale and on a chart representing a continuum from “no pain” to “worst pain”. Rescue medication was administered on demand by the patient. At the last scheduled assessment, or immediately prior to administration of rescue medication, the patient was asked to evaluate the effectiveness of the study medication to delay pain. Time to rescue medication (TRM) was analyzed using survival analysis techniques. The median time to event for each treatment group was calculated using the Kaplan-Meier product limit estimator, including the adjustment described by Miller (1981) in Survival Analysis, pp. 74-75. New York: John Wiley & Sons. Ninety five percent (95%) confidence intervals for the median time to event were calculated using the method of Simon & Lee (1982), Cancer Treat. Rep. 66, 37-42. […] Patients who dropped out for reasons other than administration of rescue medication were censored at the time they dropped out of the study.

[3] = single preemptive intravenous dose 40 mg

Sequence of COX-1 (P23219 24-599): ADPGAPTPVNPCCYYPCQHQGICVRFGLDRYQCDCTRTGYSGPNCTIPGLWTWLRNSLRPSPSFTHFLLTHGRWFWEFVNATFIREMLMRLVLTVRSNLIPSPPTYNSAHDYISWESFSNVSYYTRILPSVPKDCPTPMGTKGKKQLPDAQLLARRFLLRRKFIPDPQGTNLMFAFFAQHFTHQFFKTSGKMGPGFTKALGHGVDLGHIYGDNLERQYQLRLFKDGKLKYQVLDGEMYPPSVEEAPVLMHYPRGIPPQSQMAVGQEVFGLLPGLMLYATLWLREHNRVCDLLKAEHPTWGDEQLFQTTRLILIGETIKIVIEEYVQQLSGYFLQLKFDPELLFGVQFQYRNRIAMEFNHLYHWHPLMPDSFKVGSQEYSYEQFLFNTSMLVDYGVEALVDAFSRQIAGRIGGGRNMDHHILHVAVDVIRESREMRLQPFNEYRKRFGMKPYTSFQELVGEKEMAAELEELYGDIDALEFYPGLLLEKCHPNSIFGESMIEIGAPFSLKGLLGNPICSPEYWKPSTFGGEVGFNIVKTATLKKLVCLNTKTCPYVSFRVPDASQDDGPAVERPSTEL

| SMILES | inhibitory activity against COX-1 (COX-1) | time at which maximum blood plasma concentration of valdecoxib was reached ([1]; human, 20 mg IV bolus vs 20 mg valdecoxib oral immediate-release tablet) | solubility thermodynamic (physchem; pH 7.3, aqueous buffer) | solubility thermodynamic (physchem; pH 7.8, aqueous buffer) | solubility thermodynamic (physchem; pH 8.2, aqueous buffer) | conversion to valdecoxib after parenteral administration ([1]; human subject, parenteral) | patients rating the study medication as good or excellent ([2]; 40 mg treatment group) | patient's evaluation of effectiveness scores compared with placebo ([2]; each parecoxib treatment group) | proportion of patients taking rescue medication compared with placebo ([2]; parecoxib treatment groups 20, 40, 80 mg) | TRM compared with placebo ([2]; single doses 20 mg, 40 mg and 80 mg) | Patients taking rescue medication ([2]; single preemptive intravenous dose 20 mg) | Median TRM (time to rescue medication) [2, 3] | Patients taking rescue medication [2, 3] | Patients taking rescue medication ([2]; single preemptive intravenous dose 80 mg) |
| --- | --- | --- | --- | --- | --- | --- | --- | --- | --- | --- | --- | --- | --- | --- |
| Cc1onc(-c2ccccc2)c1-c1ccc(S(N)(=O)=O)cc1 [valdecoxib] | weak inhibitor | – | – | – | – | – | – | – | – | – | – | – | – | – |
| CCC(=O)NS(=O)(=O)c1ccc(-c2c(-c3ccccc3)noc2C)cc1 [parecoxib sodium] | – | earlier | 1 mg/mL | 18 mg/mL | 220 mg/mL | – | – | – | – | – | – | – | – | – |
| CCC(=O)NS(=O)(=O)c1ccc(-c2c(-c3ccccc3)noc2C)cc1 [Parecoxib, parecoxib] | weak in vitro inhibitory activity | – | – | – | – | rapidly and completely converted to valdecoxib | 92% | significantly higher | significantly lower | significantly longer TRM than placebo | 78% | >24 h | 48% | 59% |

Reference: patent US7695736B2, “Reconstitutable parenteral composition” (Pfizer Inc., priority 2001, dated 2010)
